Reference: patent US20100280125A1, “MEDICINAL AGENT” (priority 2004, published 2010)

Assays:
[1] = tested on: human malignant melanoma A 375; assay: replication of melanoma cells in test glasses; type: cell-based; details: a week at 37° C. in the dark, in comparison to physiological salt solution
Procedure: In addition, a third control group of test glasses (6 glasses) was formed with the same cancer cell pool and fibroblasts, into which adriamycin and cyclophosphan in the same dilution was introduced, as well as a corresponding test glass group with a physiological salt solution.
After thermostatization of the above-mentioned test glasses for a week at 37° C. (in the dark), the contents were analyzed.

melanoma 16 = type: in vivo, mice; details: for mice survived as far as the 36th day: control sub groups of 10 mice, 5 mg in water solution as a drink; for findings during the dissection: first and second sub group of the control group, 5 mg as a drink
Procedure: B57 type mice in the test and control group (60 mice each) were injected with melanoma 16. The test group were divided into 6 sub groups and the control group was divided into 3 sub groups, each with 10 mice.

papillary thyroid cancer = assay: treatment of patient R, papillary thyroid cancer; type: in vivo, human
Procedure: The patient was treated with the medicinal agent (B.V.2) for 2 weeks; one gelatine capsule two times a day with 20 mg medicinal agent perorally after food and enemas in a single dose of 100 ml solution, comprising 50 mg medicinal agent powder, diluted in 2 ml 70% ethyl alcohol and dissolved in 100 ml water solution with 0.9% NaCl.

[2] = tested on: cancer of the right ovary (recidiv); assay: treatment of patient I, recidiv of ovary cancer; type: in vivo, human
Procedure: Exstirpation of the uterus and the surrounding area on account of cancer of the right ovary was performed on patient I who was […] and had visited the doctor in November 2002. The tomogram that was dated 28 Aug.
The patient was treated with an enema of the rectum: over five days once a day, after five procedures once every other day and thereafter every third day for 15 enemas. They were treated with a single dose of 20 mg medicinal agent (B.V.2) per 15-20 ml water, diluted in 2 ml 70% ethyl alcohol.

[3] = 3 hours after taking the dose, over 7 days

| Compound | suppression of the replication of the melanoma cells ([1]; dilution of 10^−7 mmol/l) | suppression of the replication of the melanoma cells ([1]; dilution of 10^−9 mmol/l) | mice survived as far as the 36th day (melanoma 16) | findings during the dissection (melanoma 16) | duration of the dissymmetric effect (papillary thyroid cancer) | ultrasound investigation after the treatment (papillary thyroid cancer; 2 weeks, capsules 20 mg two times a day and enemas 50 mg, growth 5×3×1.7 cm before) | temperature on the left side of the body (dissymmetric effect) (papillary thyroid cancer; [3]) | temperature on the right side of the body (dissymmetric effect) (papillary thyroid cancer; [3]) | growth in control investigation using ultrasound ([2]; 2 Mar. 2004) | erythrocytes ([2]; after the treatment, before 2.5 million) | thrombocytes ([2]; after the treatment, before 110,000) | leucocytes ([2]; after the treatment, before up to 10,000) |
| --- | --- | --- | --- | --- | --- | --- | --- | --- | --- | --- | --- | --- |
| COc1cccc2c1C(=O)c1c(O)c3c(c(O)c1C2=O)C[C@@](O)(C(=O)CO)C[C@@H]3O[C@H]1C[C@H](N)[C@H](O)[C@H](C)O1 [adriamycin] | 42% | 30% | 2 mice | lung and liver injuries |  |  |  |  |  |  |  |  |
| O=P1(N(CCCl)CCCl)NCCCO1 (stereo not shown) [cyclophosphan] | 55% | 35% | 5 mice | lung and liver injuries |  |  |  |  |  |  |  |  |
| hexamethyl pararosanilin chloride [methyl violet 10B] |  |  |  |  | 1.0 to 1.5 h | a primary growth and no metastases | 37.3-38.6 °C | 35.4-36.9 °C | no longer to be found | 5.5 million | 300,000 | 9,000 |
